Experimental findings from patent US10829520B2, “Beta-hairpin peptidomimetics” (POLYPHOR AG, priority 2015, dated 2020) are described below.

Format in all cases: cell-based
Data set [1] has as its system human red blood cells (hRBC). In words: Hemolysis of human red blood cells. The conditions noted are these: red cells of human, 1 h. The essentials:
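Peptides at 100 μg/mL were incubated with PBS-washed fresh human erythrocytes (20% v/v, ~0.9×10^9 cells/mL final) for 1 h at 37° C. with shaking. Supernatant OD540 was read after 8-fold dilution; percent hemolysis was expressed relative to the 2.5% Triton X-100 full-lysis control, with PBS/0.001% acetic acid as 0%.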

Data set [2] concerns Acinetobacter baumannii DSM 30008. Particulars: DSM 30008. The essentials: (§1)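 Inocula standardised to a 0.5 McFarland reference and diluted to about 10^6 CFU/mL in MH-II broth are incubated with two-fold peptide series containing 0.002% polysorbate 80. No visible growth after 18-20 hours at 35° C defines the MIC, in μg/mL.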
Data set [3] relates to Acinetobacter baumannii 872842. The conditions noted are these: 872842.
Data set [4] relates to Klebsiella pneumoniae SSI #3010. Particulars: SSI #3010. The essentials: as §1
In data set [5] the test system is Pseudomonas aeruginosa ATCC 27853. The conditions noted are these: ATCC 27853. In short, it runs like this: as §1
The subject of data set [6] is Escherichia coli ATCC 25922. The conditions noted are these: ATCC 25922. The essentials:
as §1

Data set [7] concerns Klebsiella pneumoniae 968733. The conditions noted are these: 968733.
Another data set relates to Escherichia coli 926415. Particulars: 926415.

The structures appear in SMILES notation. Where a SMILES comes first, the peptide text is derived from it. Bridges are numbered along the chain shown (N, C = ends). [ ]: non-standard residue; d: D form. Pen = CC(C)(S)[C@H](N)C(=O)O; Tle = CC(C)(C)[C@H](N)C(=O)O; dDab = NCC[C@@H](N)C(=O)O; Dab = NCC[C@H](N)C(=O)O; Dap = NC[C@H](N)C(=O)O; Sar = CNCC(=O)O

`CC(=O)N[C@@H](Cc1c[nH]c2ccccc12)C(=O)N[C@@H](CCN)C(=O)N[C@H](C(=O)N[C@H]1CSSC[C@@H](C(=O)N[C@@H](Cc2ccc(O)cc2)C(=O)N[C@@H](CCN)C(=O)N[C@@H](CN)C(=O)N[C@@H](CCN)C(=O)N[C@@H](CCN)C(=O)N[C@@H](CCN)C(=O)N[C@H]2CCNC(=O)[C@H]([C@@H](C)O)NC(=O)[C@H](CCN)NC(=O)[C@H](CCN)NC(=O)[C@H](CC(C)C)NC(=O)[C@@H](Cc3ccccc3)NC(=O)[C@H](CCN)NC2=O)NC(=O)[C@H](C(C)C)NC(=O)[C@@H]2CCCN2C(=O)[C@@H](Cc2ccc(O)cc2)NC(=O)[C@H]([C@@H](C)O)NC1=O)C(C)(C)C` [Ex. 160] (Ac-W[Dab][Tle]CT[dY]PVCY[Dab][Dap][Dab][Dab][Dab][Dab][Dab][dF]L[Dab][Dab]T; disulfide 4-9; lactam 16-C): in data set [1] (100 μg/mL), the “Hemolysis at 100 μg/mL” value is below 1%. For the same molecule, the “Acinetobacter baumannii DSM 30008 MIC” value in data set [2] is 0.5 µg/mL. Besides, the “Acinetobacter baumannii 872842 MIC” value in data set [3] came to 1 µg/mL. In addition, the “Klebsiella pneumoniae SSI #3010 MIC” value in data set [4] came to 1 µg/mL. The “Pseudomonas aeruginosa ATCC 27853 MIC” value in data set [5] is 0.25 µg/mL. Besides, the “Escherichia coli ATCC 25922 MIC” value in data set [6] stood at 0.5 µg/mL. In data set [7], the “Klebsiella pneumoniae 968733 MIC” value is 4 µg/mL. Further, the “Escherichia coli 926415 MIC” value in the data set on Escherichia coli 926415 came to 2 µg/mL.

With `CC(C)C[C@@H]1NC(=O)[C@@H](CC(C)C)NC(=O)[C@H](CCN)NC(=O)[C@@H](NC(=O)[C@H](CCN)NC(=O)[C@@H](NC(=O)[C@H](CCN)NC(=O)CN(C)C(=O)[C@H](CCN)NC(=O)[C@H](Cc2ccc(O)cc2)NC(=O)[C@@H]2CSSC[C@H](NC(=O)[C@@H](NC(=O)[C@H](CCN)NC(=O)[C@@H](N)Cc3c[nH]c4ccccc34)C(C)(C)C)C(=O)N[C@@H](CO)C(=O)N3CCC[C@@H]3C(=O)N3CCC[C@H]3C(=O)N[C@@H](CC(C)C)C(=O)N2)[C@@H](C)O)CCNC(=O)[C@H]([C@@H](C)O)NC(=O)[C@H](CCN)NC(=O)[C@H](CCN)NC1=O` [Ex. 161] (H-W[Dab][Tle]CS[dP]PLCY[Dab][Sar][Dab]T[Dab][Dab][Dab][dL]L[Dab][Dab]T; disulfide 4-9; lactam 16-C), the “Hemolysis at 100 μg/mL” value in data set [1] (100 μg/mL) is given as below 1%. Besides, the “Acinetobacter baumannii DSM 30008 MIC” value in data set [2] was determined as 0.25 µg/mL. Also, the “Acinetobacter baumannii 872842 MIC” value in data set [3] was determined as 0.5 µg/mL. The “Klebsiella pneumoniae SSI #3010 MIC” value in data set [4] stood at 0.125 µg/mL. The “Pseudomonas aeruginosa ATCC 27853 MIC” value in data set [5] stood at 0.5 µg/mL. The “Escherichia coli ATCC 25922 MIC” value in data set [6] is 0.0625 µg/mL. Also, in data set [7], the “Klebsiella pneumoniae 968733 MIC” value turned out to be 2 µg/mL. In addition, the “Escherichia coli 926415 MIC” value with Escherichia coli 926415 was found to be 0.25 µg/mL.

Turning to `CC(C)C[C@@H]1NC(=O)[C@@H](CC(C)C)NC(=O)[C@H](CCN)NC(=O)[C@@H](NC(=O)[C@H](CCN)NC(=O)[C@@H](NC(=O)[C@H](CCN)NC(=O)CNC(=O)[C@H](CCN)NC(=O)[C@H](Cc2ccc(O)cc2)NC(=O)[C@H]2NC(=O)[C@H](CC(C)C)NC(=O)[C@@H]3CCCN3C(=O)[C@H]3CCCN3C(=O)[C@H](CO)NC(=O)[C@@H](NC(=O)[C@@H](NC(=O)[C@H](CCN)NC(=O)[C@@H](N)Cc3c[nH]c4ccccc34)C(C)C)CSSC2(C)C)[C@@H](C)O)CCNC(=O)[C@H]([C@@H](C)O)NC(=O)[C@H](CCN)NC(=O)[C@H](CCN)NC1=O` [Ex. 162] (H-W[Dab]VCS[dP]PL[Pen]Y[Dab]G[Dab]T[Dab][Dab][Dab][dL]L[Dab][Dab]T; disulfide 4-9; lactam 16-C), the “Hemolysis at 100 μg/mL” value in data set [1] (100 μg/mL) is reported as below 1%. The “Acinetobacter baumannii DSM 30008 MIC” value in data set [2] amounted to 0.5 µg/mL. In data set [3], the “Acinetobacter baumannii 872842 MIC” value came out at 0.125 µg/mL. For the same molecule, the “Klebsiella pneumoniae SSI #3010 MIC” value in data set [4] stood at 0.25 µg/mL. Besides, the “Pseudomonas aeruginosa ATCC 27853 MIC” value in data set [5] is 1 µg/mL. In data set [6], the “Escherichia coli ATCC 25922 MIC” value stood at 0.0625 µg/mL. The “Klebsiella pneumoniae 968733 MIC” value in data set [7] was 2 µg/mL. In addition, the “Escherichia coli 926415 MIC” value with Escherichia coli 926415 worked out at 0.25 µg/mL.

For the molecule `CC(=O)N[C@@H](Cc1c[nH]c2ccccc12)C(=O)N[C@@H](CCN)C(=O)N[C@H](C(=O)N[C@H]1CC(=O)NCC[C@@H](C(=O)N[C@@H](Cc2ccc(O)cc2)C(=O)N[C@@H](CCN)C(=O)N[C@H](C(=O)N[C@@H](CCN)C(=O)N[C@@H](CCN)C(=O)N[C@@H](CCN)C(=O)N[C@H]2CCNC(=O)[C@H]([C@@H](C)O)NC(=O)[C@H](CCN)NC(=O)[C@H](CCN)NC(=O)[C@H](CC(C)C)NC(=O)[C@@H](Cc3ccccc3)NC(=O)[C@H](CCN)NC2=O)[C@@H](C)O)NC(=O)[C@H](C(C)C)NC(=O)[C@@H]2CCCN2C(=O)[C@H]2CCCN2C(=O)[C@H](Cc2c[nH]cn2)NC1=O)C(C)(C)C` [Ex. 167] (Ac-W[Dab][Tle]DH[dP]PV[Dab]Y[Dab]T[Dab][Dab][Dab][Dab][Dab][dF]L[Dab][Dab]T; lactam 4-9, 16-C), the “Hemolysis at 100 μg/mL” value in data set [1] (100) is recorded as below 1%. Besides, in data set [2], the “Acinetobacter baumannii DSM 30008 MIC” value was determined as 0.5 µg/mL. Moreover, the “Acinetobacter baumannii 872842 MIC” value in data set [3] was 1 µg/mL. Further, the “Klebsiella pneumoniae SSI #3010 MIC” value in data set [4] was found to be 0.25 µg/mL. Further, the “Pseudomonas aeruginosa ATCC 27853 MIC” value in data set [5] is 0.125 µg/mL. Moreover, in data set [6], the “Escherichia coli ATCC 25922 MIC” value is 0.25 µg/mL. Also, in data set [7], the “Klebsiella pneumoniae 968733 MIC” value turned out to be 2 µg/mL. In addition, the “Escherichia coli 926415 MIC” value in the data set on Escherichia coli 926415 was determined as 1 µg/mL.

As for `CC(=O)N[C@@H](Cc1c[nH]c2ccccc12)C(=O)N[C@@H](CCN)C(=O)N[C@H](C(=O)N[C@H]1CC(=O)NCC[C@@H](C(=O)N[C@@H](Cc2ccc(O)cc2)C(=O)N[C@@H](CCN)C(=O)N[C@H](C(=O)N[C@@H](CCN)C(=O)N[C@@H](CCN)C(=O)N[C@@H](CCN)C(=O)N[C@H]2CCNC(=O)[C@H]([C@@H](C)O)NC(=O)[C@H](CCN)NC(=O)[C@H](CCN)NC(=O)[C@H](CC(C)C)NC(=O)[C@@H](CC(C)C)NC(=O)[C@H](CCN)NC2=O)[C@@H](C)O)NC(=O)[C@H](C(C)C)NC(=O)[C@@H]2CCCN2C(=O)[C@H]2CCCN2C(=O)[C@H](Cc2c[nH]cn2)NC1=O)C(C)(C)C` [Ex. 168] (Ac-W[Dab][Tle]DH[dP]PV[Dab]Y[Dab]T[Dab][Dab][Dab][Dab][Dab][dL]L[Dab][Dab]T; lactam 4-9, 16-C), the “Hemolysis at 100 μg/mL” value in data set [1] (100) was found to be 3%. Moreover, the “Acinetobacter baumannii DSM 30008 MIC” value in data set [2] stood at 2 µg/mL. For the same molecule, the “Acinetobacter baumannii 872842 MIC” value in data set [3] turned out to be 1 µg/mL. In data set [4], the “Klebsiella pneumoniae SSI #3010 MIC” value is 1 µg/mL. Also, in data set [5], the “Pseudomonas aeruginosa ATCC 27853 MIC” value came to 0.25 µg/mL. The “Escherichia coli ATCC 25922 MIC” value in data set [6] was found to be 0.5 µg/mL. In data set [7], the “Klebsiella pneumoniae 968733 MIC” value was found to be 4 µg/mL. The “Escherichia coli 926415 MIC” value with Escherichia coli 926415 amounted to 0.5 µg/mL.

For the molecule `CC(C)C[C@@H]1NC(=O)[C@H](CCCNC(=N)N)NC(=O)[C@@H](CCN)NC(=O)[C@H](C(C)C)NC(=O)[C@@H](NC(=O)[C@H](Cc2ccc(O)cc2)NC(=O)[C@H](CO)NC(=O)[C@@H](N)Cc2c[nH]c3ccccc23)CSSC[C@@H](C(=O)N[C@@H](Cc2ccc(O)cc2)C(=O)N[C@@H](CC(N)=O)C(=O)N(C)CC(=O)N[C@@H](CCN)C(=O)N[C@H](C(=O)N[C@@H](CCN)C(=O)N[C@H]2CCNC(=O)[C@H]([C@@H](C)O)NC(=O)[C@H](CCN)NC(=O)[C@H](CCN)NC(=O)[C@H](CC(C)C)NC(=O)[C@@H](CC(C)C)NC(=O)[C@H](CCN)NC2=O)[C@@H](C)O)NC1=O` [Ex. 169] (H-WSYCV[dDab]RLCYN[Sar][Dab]T[Dab][Dab][Dab][dL]L[Dab][Dab]T; disulfide 4-9; lactam 16-C), the “Hemolysis at 100 μg/mL” value in data set [1] (100 μg/mL) stood at 1%. Also, in data set [2], the “Acinetobacter baumannii DSM 30008 MIC” value is 1 µg/mL. Further, the “Acinetobacter baumannii 872842 MIC” value in data set [3] stood at 1 µg/mL. For the same molecule, the “Klebsiella pneumoniae SSI #3010 MIC” value in data set [4] was 0.25 µg/mL. Moreover, the “Pseudomonas aeruginosa ATCC 27853 MIC” value in data set [5] was determined as 1 µg/mL. For the same molecule, in data set [6], the “Escherichia coli ATCC 25922 MIC” value came out at 0.5 µg/mL. In data set [7], the “Klebsiella pneumoniae 968733 MIC” value turned out to be 2 µg/mL. The “Escherichia coli 926415 MIC” value in the data set on Escherichia coli 926415 is 0.5 µg/mL.
